Patent US20250281440A1, “METHOD TO IMPROVE GROWTH PERFORMANCE, LIVABILITY, CARCASS CHARACTERISTICS AND/OR MILK QUALITY IN SWINE” (NutriQuest, LLC, priority 2024, published 2025)
Several values for one entry are separate records, joined by “and”; a condition that tells them apart may be missing. Equal values may be shown once. Marks after values point to notes of the source that are not given here.

Assays:
[1] = test system: commercial finishing pigs (PIC 800×PIC 1050); experiment: Carcass characteristics of finishing pigs fed increasing dietary 78% Na-DMG (Example 1); type: in vivo; conditions: for 10th-rib backfat depth reduction (numerical) / Loin depth improvement compared to Control: carcasses; for Loin depth improvement compared to Control: P<0.05
Method: A study was conducted to evaluate the impact of increasing dietary levels of 78% Na-DMG on carcass characteristics of commercial finishing pigs (PIC 800×PIC 1050). A total of 723 mixed-sex finishing pigs (initial BW=179.5±1.0 lb) were housed in pens with 25 to 27 pigs per pen. […] This experiment extended over a 6-week period until pigs were harvested at 292.5±1.7 lb of BW.

sows (PIC 1050) = experiment: Milk fat content in sows fed Na-DMG (78%) (Example 2); type: in vivo, pigs
[2] = test system: commercial finishing pigs; experiment: Growth performance, livability and carcass characteristics of finishing pigs fed DMG (Example 3); type: in vivo; conditions: for ADFI / Carcass yield / Closeout ADG / Closeout G/F / End BW / Fat depth / Fat-free carcass lean / Hot carcass weight / Loin depth / Non-selected pigs (lights and culls) / Morbidity / Mortality / Pigs sold to primary market: 8-wk
Text: To evaluate the impact of increasing dietary levels of 78% sodium dimethylglycine (DMG) on growth performance, livability, and carcass characteristics of commercial finishing pigs, a total of total of 1,115 mixed-sex finishing pigs (initial BW=70.1±1.8 kg) were housed in pens with 25 to 27 pigs per pen. Pens within block were assigned randomly to one of four dietary treatments containing 0 (Control), 0.25 (DMG_0.25), 0.5 (DMG_0.5) or 1.0 (DMG_1.0) g DMG/kg of feed with 11 replicates per treatment. This experiment extended over an 8-wk period until pigs were harvested at 125.4±0.8 kg of BW.
Data were analyzed using the MIXED procedure of SAS, and preplanned orthogonal contrasts were conducted to evaluate pairwise comparisons as well as linear and quadratic effects related to the increased levels of DMG. While no linear effect was observed, there was a tendency for a quadratic response in closeout feed efficiency (G/F, P=0.08) and the percentage of pigs with morbidity (P=0.06), with the most favorable responses found in pigs fed DMG_0.25 (Table 2).

growing pigs = experiment: Incidence of lameness in pigs fed DMG (Example 4); type: in vivo
Method: A total of 1,180 growing pigs (initial BW=51.4±1.0 lb) were housed in pens with 25 to 27 pigs per pen. […] This experiment extended over a 17-wk period until pigs were harvested at 292.5±1.7 lb of BW. Signs of lameness were recorded, and percentage of pigs removed to hospital pens due to lameness were calculated (Table 3).

finishing pigs = experiment: Meta-analysis (3-trial combined) of morbidity, mortality and F/G in late finishing pigs fed Na-DMG (Examples 5 and 7); type: in vivo
Text: Three studies were compiled to evaluate the effects of dietary supplementation of Na-DMG (78%) on morbidity and mortality in finishing pigs. In each study, pigs were fed either a Control diet or diet containing Na-DMG at 0.50 lb/ton from approximately 180 lb of body weight until harvested at 290 lb for a period of 6 to 8 weeks. […] Reasons of morbidity and mortality included, but not limited to, lameness, ileitis, bacterial infection, injury, prolapse, intestinal torsion, stomach ulcers, abdominal rupture, bloat, failure to eat.
(§1) Animals produce greenhouse gases due to biological processes for growth and maintenance functions. Pig production would therefore be a source of greenhouse gases and wean to finish production would result in production of carbon dioxide, methane, and nitrous oxide emissions. Using the Iowa Pork Industry's sustainability calculator, we calculated the impact feedings of DMG in late finishing would have on greenhouse gas emissions. […] We then took similar estimates for early performance and estimated F/G and mortality for an entire grow-out period to use in the calculator. The calculator provides equivalent lb. of carbon dioxide per lb. or market weight for comparison purposes. By adding DMG in late finishing, carbon dioxide emissions were reduced by 3% during the entire wean to finish grow-out.

lactating sows = experiment: Serum non-esterified fatty acids (NEFA) in lactating sows (Example 6); type: in vivo, pigs; conditions: 445 mg Na-DMG per day, measured at weaning
Text: Serum non-esterified fatty acids (NEFA) are molecules released from adipose tissue during periods of energy demand or catabolic status. In research of energy metabolism, NEFA level has been used as biomarker to assess balance between fat mobilization and energy expenditure.

[3] = Calculated wean-to-finish performance and greenhouse gas emissions, Pork Sustainability Calculator (Example 7); design: species or system pigs; conditions: DMG @ 0.5 lb/ton in late finishing
Text: as §1

rats = conditions: when folate was sufficient; cited from earlier work
sows = sows fed DMG from day 105 of gestation until day 3 of lactation; cited from earlier work
broilers = conditions: cited from earlier work
[4] = Na-DMG 0.50 lb/ton, approx. 180 to 290 lb BW, 6 to 8 weeks

SMILES: CN(C)CC(=O)O [DMG, N,N-dimethylglycine]
- Fat-free carcass lean ([1]; DMG at 0.25 lb/ton, P<0.10): tended to be improved
- 10th-rib backfat depth reduction (numerical) ([1]; DMG at 0.25 lb/ton): 3.4%
- Loin depth improvement compared to Control ([1]; DMG at 0.25 lb/ton): 2.5%
- 10th-rib backfat depth reduction (numerical) ([1]; DMG at 0.50 lb/ton): 2.3%
- Loin depth improvement compared to Control ([1]; DMG at 0.75 lb/ton): 3.5%
- Loin depth, response to increasing dietary DMG level ([1]; increasing dietary DMG level, P=0.04): linearly improved
- Total milk fat, % (Day 10-14 in lactation) (sows (PIC 1050); 0.5 lb/ton from day 100 of gestation through lactation): 6.114%
- Total milk fat, % (Day 10-14 in lactation) (sows (PIC 1050); 0.5 lb/ton from farrowing through lactation): 5.973%
- Carcass characteristics (hot carcass weight, carcass yield, fat depth, loin depth, fat-free carcass lean) ([2]; 0.25, 0.5 and 1.0 g DMG/kg feed vs Control): not different among treatments
- ADFI ([2]; 0.25 g DMG/kg feed): 3.00^b kg/day
- Carcass yield ([2]; 0.25 g DMG/kg feed): 72.6%
- Closeout ADG ([2]; 0.25 g DMG/kg feed): 1.01 kg/day and 1.01^y kg/day
- Closeout G/F ([2]; 0.25 g DMG/kg feed): 0.337
- End BW ([2]; 0.25 g DMG/kg feed): 126.4 kg
- Fat depth ([2]; 0.25 g DMG/kg feed): 16.6 mm
- Fat-free carcass lean ([2]; 0.25 g DMG/kg feed): 56.2%
- Hot carcass weight ([2]; 0.25 g DMG/kg feed): 93.5 kg
- Loin depth ([2]; 0.25 g DMG/kg feed): 62.5 mm
- Non-selected pigs (lights and culls) ([2]; 0.25 g DMG/kg feed): 8.7%
- Increase in closeout ADG compared with Control ([2]; 0.25 g DMG/kg feed, P=0.02): 6%
- Increase in closeout G/F compared with Control ([2]; 0.25 g DMG/kg feed, P=0.05): 4%
- ADFI ([2]; 0.5 g DMG/kg feed): 2.93^a kg/day
- Carcass yield ([2]; 0.5 g DMG/kg feed): 73.6%
- Closeout ADG ([2]; 0.5 g DMG/kg feed): 0.95^x kg/day
- Closeout G/F ([2]; 0.5 g DMG/kg feed): 0.326
- End BW ([2]; 0.5 g DMG/kg feed): 124.9 kg
- Fat depth ([2]; 0.5 g DMG/kg feed): 17.0 mm
- Fat-free carcass lean ([2]; 0.5 g DMG/kg feed): 56.0%
- Hot carcass weight ([2]; 0.5 g DMG/kg feed): 94.1 kg
- Loin depth ([2]; 0.5 g DMG/kg feed): 62.2 mm
- Morbidity ([2]; 0.5 g DMG/kg feed): 0.7^cd %
- Mortality ([2]; 0.5 g DMG/kg feed): 2.5^d %
- Non-selected pigs (lights and culls) ([2]; 0.5 g DMG/kg feed): 9.4%
- Pigs sold to primary market ([2]; 0.5 g DMG/kg feed): 87.4%
- ADFI ([2]; 1.0 g DMG/kg feed): 2.99^ab kg/day
- Carcass yield ([2]; 1.0 g DMG/kg feed): 73.8%
- Closeout ADG ([2]; 1.0 g DMG/kg feed): 0.97^xy kg/day
- Closeout G/F ([2]; 1.0 g DMG/kg feed): 0.323
- End BW ([2]; 1.0 g DMG/kg feed): 125.8 kg
- Fat depth ([2]; 1.0 g DMG/kg feed): 16.8 mm
- Fat-free carcass lean ([2]; 1.0 g DMG/kg feed): 56.0%
- Hot carcass weight ([2]; 1.0 g DMG/kg feed): 94.2 kg
- Loin depth ([2]; 1.0 g DMG/kg feed): 61.7 mm
- Morbidity ([2]; 1.0 g DMG/kg feed): 2.2^d %
- Mortality ([2]; 1.0 g DMG/kg feed): 1.4^cd %
- Non-selected pigs (lights and culls) ([2]; 1.0 g DMG/kg feed): 6.5%
- Pigs sold to primary market ([2]; 1.0 g DMG/kg feed): 90.0%
- Growth performance and livability compared with Control ([2]; DMG at 0.5 and 1.0 g/kg, P>0.10): not different compared with Control
- Lameness (pigs removed to hospital pens due to lameness) (growing pigs; DMG_0.25 (0.25 lb DMG/ton feed), 17-wk): 0.3%^d
- Lameness (pigs removed to hospital pens due to lameness) (growing pigs; DMG_0.50 (0.50 lb DMG/ton feed), 17-wk): 0.7%^cd
- Lameness (pigs removed to hospital pens due to lameness) (growing pigs; DMG_0.75, 17-wk): 1.4%^cd
- Incidence of lameness compared to Control (growing pigs; regardless of dietary concentration, statistically (P<0.10) or numerically (P>0.10)): reduced incidence of lameness
- Closeout F/G, late finishing testing period (finishing pigs; DMG @ 0.5 lb/ton): 3.30
- Closeout F/G, late finishing testing period, % Change vs Control (finishing pigs; DMG @ 0.5 lb/ton): −4.6%
- Mortality, late finishing testing period, % Change vs Control (finishing pigs; DMG @ 0.5 lb/ton): −39.0%
- Reduction of morbidity compared to Control (finishing pigs; Na-DMG 0.50 lb/ton): 72%
- Reduction of total removal compared to Control (finishing pigs; Na-DMG 0.50 lb/ton): 53%
- Morbidity (finishing pigs; [4]): 0.36%
- Mortality (finishing pigs; [4]): 1.08%
- Non-selected (culls and lights) (finishing pigs; [4]): 5.48%
- Pigs sold to primary market (finishing pigs; [4]): 93.1%
- Total pigs finished (finishing pigs; [4]): 98.6%
- Total removal (finishing pigs; [4]): 1.44%
- Serum NEFA reduction compared to Control (lactating sows): 32%
- Calculated wean-to-finish closeout F/G, % Change vs Control [3]: −2.6%
- Calculated wean-to-finish mortality, % Change vs Control [3]: −18.3%
- Calculated wean-to-finish mortality ([3]; early mortality rate of 2% combined): 3.08%
- Calculated wean-to-finish closeout F/G ([3]; feed budget of 353 lb per pig combined): 2.58
- Plasma homocysteine level (rats): significantly reduced
- Nutrient digestibility (sows): improved nutrient digestibility
- Nutrient digestibility (broilers): improved nutrient digestibility
